Experimental data: patent US20110256147A1, “DIAGNOSTIC AND TREATMENT METHODS FOR CANCER BASED ON IMMUNE INHIBITORS” (THE JOHNS HOPKINS UNIVERSITY, priority 2008, published 2011)

Test system: CD1d-mediated activation of NKT cells
Experiment: CD1d-mediated activation of a panel of NKT cell hybridomas by pretreated LCD1dwt cells, IL-2 ELISA
Format: cell-based, mouse
Conditions: LCD1dwt cells treated 4 h; DN32.D3, N37-1A12, N38-3C3
Experimental: FIG. 2. […] LCD1dwt cells were treated with 1 ml media containing 5% FBS, FBS, human AB serum or serum from the indicated patients for 3-4 h, washed extensively and then co-cultured with N37-1A12 and N38-3C3 NKT cell hybridomas. IL-2 was measured by standard cytokine ELISA, and data is shown as percent control, normalized to cells treated with culture media as 100% or the maximum level of stimulation.
FIG. 4. Treatment with ovarian cancer associated ascites has no effect on HLA-A2 mediated antigen presentation. […] IFN-γ released was measured by ELISA. […] NKT cell recognition of CD1d was assessed by measuring IL-2 production in the supernatants by ELISA.
FIG. 5. […] NKT cell recognition of CD1d1 was assessed by measuring IL-2 production in the supernatants by ELISA. […]
FIG. 6. […] IL-2 was measured, as an indication of NKT cell activation, by standard cytokine ELISA. […] NKT cell recognition of CD was assessed by measuring IL-2 production in the supernatants by ELISA. […]
FIG. 7. […] (A) IL-2 was measured, or GM-CSF (B) as an indication of NKT cell activation, by standard cytokine ELISA. […] The extracted lipids were analyzed by thin-layer chromatography (TLC) (HPTLC Silica Gel 60; Merck, Darmstadt, Germany) with chloroform-methanol-0.25% aqueous KCl (60:35:8) as running solvent. Gangliosides were detected with a resorcinol—HCl Cu2+ reagent. […]

## GT1b
  CD1d-mediated activation of NKT cells, increasing doses of ganglioside: did not inhibit
